Test results from ChEMBL document CHEMBL5131391, “One-pot three-component synthesis of novel pyrazolo[3,4-b]pyridines as potent antileukemic agents” (Eur J Med Chem, 2022).
Calls of active or inactive are those of the source. No cut-off for these calls is given here.

Legend:
[1] = system: MV4-11; assay: Antiproliferative activity against human MV4-11 cells assessed as reduction in cell viability incubated for 72 hrs by resazurin dye based assay; type: functional; settings: MV4-11, 72 h
[2] = system: KOPN-8; assay: Antiproliferative activity against human KOPN-8 cells assessed as reduction in cell viability incubated for 72 hrs by resazurin dye based assay; type: functional; settings: KOPN-8, 72 h
[3] = system: ML-2; assay: Antiproliferative activity against human ML-2 cells assessed as reduction in cell viability incubated for 72 hrs by resazurin dye based assay; type: functional; settings: ML-2, 72 h
[4] = system: RS4-11; assay: Induction of cell cycle arrest in human RS4-11 cells assessed as accumulation of cells in subG1 phase at 1.25 to 10 uM measured after 72 hrs by PI staining based flow cytometry analysis; type: functional; settings: dose 1.25-10 µM
[5] = system: K562; assay: Antiproliferative activity against human K562 cells assessed as reduction in cell viability incubated for 72 hrs by resazurin dye based assay; type: functional; settings: K562, 72 h
[6] = system: RS4-11; assay: Induction of cell cycle arrest in human RS4-11 cells assessed as accumulation of cells in G2/M phase at 1.25 to 10 uM measured after 72 hrs by PI staining based flow cytometry analysis; type: functional; settings: dose 1.25-10 µM
[7] = system: RS4-11; assay: Antiproliferative activity against human RS4-11 cells assessed as reduction in cell viability incubated for 72 hrs by resazurin dye based assay; type: functional; settings: RS4-11, 72 h
[8] = system: RS4-11; assay: Downregulation of HOXA9 protein expression in human RS4-11 cells at 5 to 20 uM measured after 24 hrs by Western blot analysis; type: functional, cell-based; settings: dose 5-20 µM
[9] = system: RS4-11; assay: Induction of cell cycle arrest in human RS4-11 cells assessed as accumulation of cells in G2/M phase measured after 48 hrs by PI staining based flow cytometry analysis; type: functional; settings: dose 1.25-10 µM, DDE = dose-dependent effect
[10] = system: CCRF-CEM; assay: Antiproliferative activity against human CEM cells assessed as reduction in cell viability incubated for 72 hrs by resazurin dye based assay; type: functional
[11] = system: RS4-11; assay: Downregulation of MEIS1 protein expression in human RS4-11 cells at 5 to 20 uM measured after 24 hrs by Western blot analysis; type: functional, cell-based; settings: dose 5-20 µM
[12] = system: MCF7; assay: Antiproliferative activity against human MCF7 cells assessed as growth inhibition at 10 uM measured after 48 hrs by NCI protocol based SRB assay relative to control; type: functional; settings: read-out: GI
[13] = system: NCI-H226; assay: Antiproliferative activity against human NCI-H226 cells assessed as growth inhibition at 10 uM measured after 48 hrs by NCI protocol based SRB assay relative to control; type: functional; settings: read-out: GI
[14] = system: A549; assay: Antiproliferative activity against human A549 cells assessed as growth inhibition at 10 uM measured after 48 hrs by NCI protocol based SRB assay relative to control; type: functional; settings: read-out: GI
[15] = system: SNB-19; assay: Antiproliferative activity against human SNB-19 cells assessed as growth inhibition at 10 uM measured after 48 hrs by NCI protocol based SRB assay relative to control; type: functional; settings: read-out: GI
[16] = system: SF-268; assay: Antiproliferative activity against human SF-268 cells assessed as growth inhibition at 10 uM measured after 48 hrs by NCI protocol based SRB assay relative to control; type: functional; settings: read-out: GI
[17] = system: CAKI-1; assay: Antiproliferative activity against human CAKI-1 cells assessed as growth inhibition at 10 uM measured after 48 hrs by NCI protocol based SRB assay relative to control; type: functional; settings: read-out: GI
[18] = system: 786-0; assay: Antiproliferative activity against human 786-0 cells assessed as growth inhibition at 10 uM measured after 48 hrs by NCI protocol based SRB assay relative to control; type: functional; settings: read-out: GI
[19] = system: NCI/ADR-RES; assay: Antiproliferative activity against human NCl/ADR-RES cells assessed as growth inhibition at 10 uM measured after 48 hrs by NCI protocol based SRB assay relative to control; type: functional; settings: read-out: GI
[20] = system: OVCAR-8; assay: Antiproliferative activity against human OVCAR-8 cells assessed as growth inhibition at 10 uM measured after 48 hrs by NCI protocol based SRB assay relative to control; type: functional; settings: read-out: GI
[21] = system: NCI-H522; assay: Antiproliferative activity against human NCI-H522 cells assessed as growth inhibition at 10 uM measured after 48 hrs by NCI protocol based SRB assay relative to control; type: functional; settings: read-out: GI
[22] = system: HT-29; assay: Antiproliferative activity against human HT-29 cells assessed as growth inhibition at 10 uM measured after 48 hrs by NCI protocol based SRB assay relative to control; type: functional; settings: read-out: GI
[23] = system: SK-OV-3; assay: Antiproliferative activity against human SK-OV-3 cells assessed as growth inhibition at 10 uM measured after 48 hrs by NCI protocol based SRB assay relative to control; type: functional; settings: read-out: GI
[24] = system: UACC-257; assay: Antiproliferative activity against human UACC-257 cells assessed as growth inhibition at 10 uM measured after 48 hrs by NCI protocol based SRB assay relative to control; type: functional; settings: read-out: GI
[25] = system: SR; assay: Antiproliferative activity against human SR cells assessed as growth inhibition at 10 uM measured after 48 hrs by NCI protocol based SRB assay relative to control; type: functional; settings: read-out: GI
[26] = system: IGROV-1; assay: Antiproliferative activity against human IGROV-1 cells assessed as growth inhibition at 10 uM measured after 48 hrs by NCI protocol based SRB assay relative to control; type: functional; settings: read-out: GI
[27] = system: MDA-MB-468; assay: Antiproliferative activity against human MDA-MB-468 cells assessed as growth inhibition at 10 uM measured after 48 hrs by NCI protocol based SRB assay relative to control; type: functional; settings: read-out: GI
[28] = system: HCT-15; assay: Antiproliferative activity against human HCT-15 cells assessed as growth inhibition at 10 uM measured after 48 hrs by NCI protocol based SRB assay relative to control; type: functional; settings: read-out: GI
[29] = system: HCT-116; assay: Antiproliferative activity against human HCT-116 cells assessed as growth inhibition at 10 uM measured after 48 hrs by NCI protocol based SRB assay relative to control; type: functional; settings: read-out: GI
[30] = system: RPMI-8226; assay: Antiproliferative activity against human RPMI-8226 cells assessed as growth inhibition at 10 uM measured after 48 hrs by NCI protocol based SRB assay relative to control; type: functional; settings: read-out: GI
[31] = system: SW-620; assay: Antiproliferative activity against human SW-620 cells assessed as growth inhibition at 10 uM measured after 48 hrs by NCI protocol based SRB assay relative to control; type: functional; settings: read-out: GI
[32] = system: SN12C; assay: Antiproliferative activity against human SN12C cells assessed as growth inhibition at 10 uM measured after 48 hrs by NCI protocol based SRB assay relative to control; type: functional; settings: read-out: GI
[33] = system: T47D; assay: Antiproliferative activity against human T47D cells assessed as growth inhibition at 10 uM measured after 48 hrs by NCI protocol based SRB assay relative to control; type: functional; settings: read-out: GI
[34] = system: SNB-75; assay: Antiproliferative activity against human SNB-75 cells assessed as growth inhibition at 10 uM measured after 48 hrs by NCI protocol based SRB assay relative to control; type: functional; settings: read-out: GI
[35] = system: UACC-62; assay: Antiproliferative activity against human UACC-62 cells assessed as growth inhibition at 10 uM measured after 48 hrs by NCI protocol based SRB assay relative to control; type: functional; settings: read-out: GI
[36] = system: SF-539; assay: Antiproliferative activity against human SF-539 cells assessed as growth inhibition at 10 uM measured after 48 hrs by NCI protocol based SRB assay relative to control; type: functional; settings: read-out: GI
[37] = system: CCRF-CEM; assay: Antiproliferative activity against human CCRF-CEM cells assessed as growth inhibition at 10 uM measured after 48 hrs by NCI protocol based SRB assay relative to control; type: functional; settings: read-out: GI
[38] = system: PC-3; assay: Antiproliferative activity against human PC-3 cells assessed as growth inhibition at 10 uM measured after 48 hrs by NCI protocol based SRB assay relative to control; type: functional; settings: read-out: GI
[39] = system: ACHN; assay: Antiproliferative activity against human ACHN cells assessed as growth inhibition at 10 uM measured after 48 hrs by NCI protocol based SRB assay relative to control; type: functional; settings: read-out: GI
[40] = system: K562; assay: Antiproliferative activity against human K562 cells assessed as growth inhibition at 10 uM measured after 48 hrs by NCI protocol based SRB assay relative to control; type: functional; settings: read-out: GI
[41] = system: MDA-MB-231; assay: Antiproliferative activity against human MDA-MB-231 cells assessed as growth inhibition at 10 uM measured after 48 hrs by NCI protocol based SRB assay relative to control; type: functional; settings: read-out: GI
[42] = system: SK-MEL-2; assay: Antiproliferative activity against human SK-MEL-2 cells assessed as growth inhibition at 10 uM measured after 48 hrs by NCI protocol based SRB assay relative to control; type: functional; settings: read-out: GI
[43] = system: MDA-MB-435; assay: Antiproliferative activity against human MDA-MB-435 cells assessed as growth inhibition at 10 uM measured after 48 hrs by NCI protocol based SRB assay relative to control; type: functional; settings: read-out: GI
[44] = system: UO-31; assay: Antiproliferative activity against human UO-31 cells assessed as growth inhibition at 10 uM measured after 48 hrs by NCI protocol based SRB assay relative to control; type: functional; settings: read-out: GI
[45] = system: EKVX; assay: Antiproliferative activity against human EKVX cells assessed as growth inhibition at 10 uM measured after 48 hrs by NCI protocol based SRB assay relative to control; type: functional; settings: read-out: GI
[46] = system: SK-MEL-5; assay: Antiproliferative activity against human SK-MEL-5 cells assessed as growth inhibition at 10 uM measured after 48 hrs by NCI protocol based SRB assay relative to control; type: functional; settings: read-out: GI
[47] = system: MOLT-4; assay: Antiproliferative activity against human MOLT-4 cells assessed as growth inhibition at 10 uM measured after 48 hrs by NCI protocol based SRB assay relative to control; type: functional; settings: read-out: GI
[48] = system: OVCAR-4; assay: Antiproliferative activity against human OVCAR-4 cells assessed as growth inhibition at 10 uM measured after 48 hrs by NCI protocol based SRB assay relative to control; type: functional; settings: read-out: GI
[49] = system: KM12; assay: Antiproliferative activity against human KM12 cells assessed as growth inhibition at 10 uM measured after 48 hrs by NCI protocol based SRB assay relative to control; type: functional; settings: read-out: GI
[50] = system: U-251; assay: Antiproliferative activity against human U-251 cells assessed as growth inhibition at 10 uM measured after 48 hrs by NCI protocol based SRB assay relative to control; type: functional; settings: read-out: GI
[51] = system: NCI-H460; assay: Antiproliferative activity against human NCI-H460 cells assessed as growth inhibition at 10 uM measured after 48 hrs by NCI protocol based SRB assay relative to control; type: functional; settings: read-out: GI
[52] = system: HOP-92; assay: Antiproliferative activity against human HOP-92 cells assessed as growth inhibition at 10 uM measured after 48 hrs by NCI protocol based SRB assay relative to control; type: functional; settings: read-out: GI

COc1ccc(-c2nc3c(c(-c4ccccc4)nn3-c3ccccc3)c(-c3ccc(O)cc3)c2C#N)cc1
IC50 [1]: 1.6 µM | IC50 [2]: 0.2 µM | IC50 [3]: 0.4 µM | Activity [4]: Active | IC50 [5]: 2.1 µM | Activity [6]: Active | IC50 [7]: 1 µM | Activity [8]: Active | Activity [9]: Dde | IC50 [10]: 6.7 µM | Activity [11]: Active

COc1cc(-c2c(C#N)c(-c3ccco3)nc3c2c(-c2ccccc2)nn3-c2ccccc2)ccc1O
inhibition of growth at 10 µM [12]: 34% | inhibition of growth at 10 µM [13]: 15% | inhibition of growth at 10 µM [14]: 39% | inhibition of growth at 10 µM [15]: 13% | inhibition of growth at 10 µM [16]: 25% | inhibition of growth at 10 µM [17]: 29% | inhibition of growth at 10 µM [18]: 26% | inhibition of growth at 10 µM [19]: 19% | inhibition of growth at 10 µM [20]: 15% | inhibition of growth at 10 µM [21]: 30% | inhibition of growth at 10 µM [22]: 15% | inhibition of growth at 10 µM [23]: 15% | inhibition of growth at 10 µM [24]: 16% | inhibition of growth at 10 µM [25]: 34% | IC50 [1]: 35.3 µM | inhibition of growth at 10 µM [26]: 13% | inhibition of growth at 10 µM [27]: 14% | inhibition of growth at 10 µM [28]: 28% | inhibition of growth at 10 µM [29]: 43% | IC50 [5]: 24.9 µM | inhibition of growth at 10 µM [30]: 21% | inhibition of growth at 10 µM [31]: 11% | inhibition of growth at 10 µM [32]: 18% | inhibition of growth at 10 µM [33]: 34% | inhibition of growth at 10 µM [34]: 27% | inhibition of growth at 10 µM [35]: 18% | inhibition of growth at 10 µM [36]: 13% | inhibition of growth at 10 µM [37]: 25% | inhibition of growth at 10 µM [38]: 41% | inhibition of growth at 10 µM [39]: 12% | inhibition of growth at 10 µM [40]: 32% | inhibition of growth at 10 µM [41]: 17% | inhibition of growth at 10 µM [42]: 11% | inhibition of growth at 10 µM [43]: 23% | inhibition of growth at 10 µM [44]: 27% | inhibition of growth at 10 µM [45]: 31% | inhibition of growth at 10 µM [46]: 20% | IC50 [10]: 36.5 µM | inhibition of growth at 10 µM [47]: 47% | inhibition of growth at 10 µM [48]: 19% | inhibition of growth at 10 µM [49]: 15% | inhibition of growth at 10 µM [50]: 15% | inhibition of growth at 10 µM [51]: 28% | inhibition of growth at 10 µM [52]: 33%
